Test results from US7141540B2, “Cyclodextrin grafted biocompatible amphilphilic polymer and methods of preparation and use thereof” (Genta Salus LLC, priority 2001, dated 2006).

What was measured:
human red blood cells = experiment: Hemolysis on fresh human blood cells; assay type: cell-based; conditions: for Hemolysis (HC50, mM): human red blood cells, 30 minutes at 37° C., 0 to 50 mg/ml in PBS
Method: To further investigate the cytotoxicity of our polymers and their possible biodegradation products, their hemolysis effects were tested on fresh human blood cells in comparison with commercial CD monomers as describe below. The degree of hemolysis was reported as a percentage of the total efflux of hemoglobin in distilled water (Table 6)
1. Red blood cells were isolated from whole human blood by centrifugation at 1000 g for 10 minutes.
2. The plasma was removed and the red blood cells re-suspended in normal buffed saline (PBS, 0.154 M sodium chloride and 0.01 M phosphate, pH=7.4). The red blood cells were pelleted by centrifugation (1000 g for 10 minutes).
3. Step 2 was repeated twice to remove the heme released from damaged cells.
4. The final pellet was diluted with PBS to give a hematocrit of approximately 12 (or 5%) as determined by centrifugal sedimentation.
5.2 ml of polymer or cyclodextrin solutions of a series of concentrations from 0 to 50 mg/ml in PBS buffer) equilibrated at 37° C. in PBS buffer were equilibrated at 37° C. To this was added 100 ul of a red blood cell suspension followed by mixing of the sample with gentle inversion. The samples were incubated for 30 minutes at 37° C.
6. The intact cells and cellular debris were pelleted by centrifugation at 1000 g for 5 min. The supernatant was analyzed spectrophotometrically at 543 nm for released heme.

[1] = Paclitaxel loading (solubilisation) by CD polymers or CD monomers; assay type: physicochemical
Method: Preparation of Paclitaxel Complexes with CD Polymers or CD Monomers
(A) Co-dissolving Method: This Method is Suitable for all Complexes with Water Soluble Polymers
The aqueous solution of polymer (or monomer controls) (usually about 100 mg/ml) was mixed with equal volume (usually 40 to 2000 ul) of the paclitaxel solution (Cpaclitael=0.1 to 8.0 mg/ml in methanol). The mixture was incubated at room temperature for about half an hour. Then the solvents were removed in a centrifuge concentrator at room temperature. The concentrated syrup or wax solid was reconstituted by adding water or PBS buffer to the original volume. The mixture was usually a clear or slightly cloudy solution after 30 minutes of reconstitution. The un-dissolved paclitaxel particles were removed either by ultra-filtration (0.2 um filter) or by centrifugation (20 minutes at 20,800 g and room temperature). The paclitaxel concentration in the clear supernatant was quantified by UV absorbance at […] by using the corresponding cyclodextrin polymer solution as the background calibration.
(B) Dialysis Method: This Method is Suitable for the Preparation of all Paclitaxel/polymer Complex Solutions:
The methanol solution of the polymer (usually […]) was mixed with equal volume (100 ul) of paclitaxel solution (1 to 3 mg/ml in methanol). The clear mixture was incubated at room temperature for about half an hour at room temperature, followed by dialysis (MWCO=12,000) overnight against 2 L water. The dialysis solution was usually a clear solution. Trace amounts of paclitaxel particles were removed either by ultra-filtration (0.2 um filter) or by centrifugation (20 minutes at 20,800 g and room temperature). The clear solution was stored at 4° C. or below.

[2] = at 50% CD concentrations; cited from earlier work
[3] = Stability of Taxol/CD complexes in 50% fetal bovine serum; assay type: physicochemical; conditions: paclitaxel complex, 50% Serum, room temperature
Method: (§1) Stability of Taxol/CD Complexes in 50% Serum or After 10 Fold Dilution in PBS:
(§2) • (A) Stability in 50% fetal bovine serum: Taxol/PEG-L8-AcCD (2.0 mg/50 mg in 1.0 ml PBS buffer) or Taxol/DMCD (0.5 mg/50 mg in PBS buffer) complex solutions were prepared as describe in method A of example 7. Fifty micro liters of the complex solutions were diluted with equal volume of fetal bovine serum respectively. Both mixtures were centrifuged at […] at room temperature after incubation at room temperature for 2 hours, 21 hours, 49 hours and 144 hours, respectively. The Taxol concentration in each supernatant was quantified by measuring the UV absorption at 230 nm. • (B) Stability after 10 fold dilution with PBS: Taxol/PEG-L8-AcCD (2.0 mg/50 mg in 1.0 ml PBS buffer) or Taxol/DMCD (0.5 mg/50 mg in PBS buffer) complex solutions were prepared as describe in example 10. Fifty micro liters of the complex solutions were diluted with 450 micro liter of PBS buffer, respectively. Both mixtures were centrifuged at […] at room temperature after incubated room temperature for 2 hours, 21 hours, 49 hours and 144 hours. The Taxol concentration in each supernatant was quantified by measuring the UV absorption at 230 nm.

[4] = Stability of Taxol/CD complexes after 10 fold dilution with PBS; assay type: physicochemical; conditions: paclitaxel complex, 10X PBS, room temperature
Method: as §1, §2

[5] = Drug amount in 1.0 ml water or PBS in the presence of 50 mg of polymer or other CD derivatives

Compound: OC[C@H]1O[C@@H]2O[C@H]3[C@H](O)[C@@H](O)[C@@H](O[C@H]4[C@H](O)[C@@H](O)[C@@H](O[C@H]5[C@H](O)[C@@H](O)[C@@H](O[C@H]6[C@H](O)[C@@H](O)[C@@H](O[C@H]7[C@H](O)[C@@H](O)[C@@H](O[C@H]8[C@H](O)[C@@H](O)[C@@H](O[C@H]1[C@H](O)[C@H]2O)O[C@@H]8CO)O[C@@H]7CO)O[C@@H]6CO)O[C@@H]5CO)O[C@@H]4CO)O[C@@H]3CO [βCD, β-cyclodextrin]
- Hemolysis (HC50, mM) (human red blood cells): 4.0 mM

Compound: Mono-6-(8-amino-3,6-dioxy-octylamino)-6-deoxy-β-cyclodextrin [CD-L8-NH2]
- toxicity compared with natural β-cyclodextrin (human red blood cells): much less toxic
- Hemolysis (HC50, mM) (human red blood cells): 25 mM

Compound: hydoxylpropyl β-cyclodextrin [HP-CD]
- Paclitaxel loading (mg/50 mg polymer) [1, 5]: <0.05 mg/50 mg polymer
- Hemolysis (HC50, mM) (human red blood cells): 35 mM
- paclitaxel dissolved [2]: about 0.7 mg/ml

Compound: methyl-β-cyclodextrin [DM-CD]
- Paclitaxel loading (mg/50 mg polymer) ([1]; at day 1, drug amount in 1.0 ml water or PBS in the presence of 50 mg of CD derivative): ˜0.2 (at day 1) mg/50 mg polymer
- Remaining paclitaxel % in diluted solution ([3]; 0 hour): 100%
- Remaining paclitaxel % in diluted solution ([3]; 2 hour): 100%
- Remaining paclitaxel % in diluted solution ([3]; 21 hour): 100%
- Remaining paclitaxel % in diluted solution ([3]; 49 hour): 100%
- Remaining paclitaxel % in diluted solution ([3]; 144 hour): 100%
- Remaining paclitaxel % in diluted solution ([4]; 0 hour): 100%
- Remaining paclitaxel % in diluted solution ([4]; 2 hour): 86%
- Remaining paclitaxel % in diluted solution ([4]; 21 hour): 13%
- Hemolysis (HC50, mM) (human red blood cells): 1.0 mM
- paclitaxel dissolved [2]: ~33 mg/mL

Compound: sulfobutylether-β-cyclodextrin [(SBE)7-CD]
- Paclitaxel loading (mg/50 mg polymer) [1, 5]: <0.05 mg/50 mg polymer
